{"source": "paper PMC12030650", "about": "“Synthesis, Antitumor Activities, and Apoptosis-Inducing Activities of Schiff’s Bases Incorporating Imidazolidine-2,4-dione Scaffold: Molecular Docking Studies and Enzymatic Inhibition Activities” (Pharmaceuticals, 2025)", "key": {"EGFR [1]": {"molecular_target": "T1, EGFR (Homo sapiens, UniProt P00533)", "T1 construct": "purchased BPS Bioscience 40321", "T1 sequence (P00533 25-1210)": "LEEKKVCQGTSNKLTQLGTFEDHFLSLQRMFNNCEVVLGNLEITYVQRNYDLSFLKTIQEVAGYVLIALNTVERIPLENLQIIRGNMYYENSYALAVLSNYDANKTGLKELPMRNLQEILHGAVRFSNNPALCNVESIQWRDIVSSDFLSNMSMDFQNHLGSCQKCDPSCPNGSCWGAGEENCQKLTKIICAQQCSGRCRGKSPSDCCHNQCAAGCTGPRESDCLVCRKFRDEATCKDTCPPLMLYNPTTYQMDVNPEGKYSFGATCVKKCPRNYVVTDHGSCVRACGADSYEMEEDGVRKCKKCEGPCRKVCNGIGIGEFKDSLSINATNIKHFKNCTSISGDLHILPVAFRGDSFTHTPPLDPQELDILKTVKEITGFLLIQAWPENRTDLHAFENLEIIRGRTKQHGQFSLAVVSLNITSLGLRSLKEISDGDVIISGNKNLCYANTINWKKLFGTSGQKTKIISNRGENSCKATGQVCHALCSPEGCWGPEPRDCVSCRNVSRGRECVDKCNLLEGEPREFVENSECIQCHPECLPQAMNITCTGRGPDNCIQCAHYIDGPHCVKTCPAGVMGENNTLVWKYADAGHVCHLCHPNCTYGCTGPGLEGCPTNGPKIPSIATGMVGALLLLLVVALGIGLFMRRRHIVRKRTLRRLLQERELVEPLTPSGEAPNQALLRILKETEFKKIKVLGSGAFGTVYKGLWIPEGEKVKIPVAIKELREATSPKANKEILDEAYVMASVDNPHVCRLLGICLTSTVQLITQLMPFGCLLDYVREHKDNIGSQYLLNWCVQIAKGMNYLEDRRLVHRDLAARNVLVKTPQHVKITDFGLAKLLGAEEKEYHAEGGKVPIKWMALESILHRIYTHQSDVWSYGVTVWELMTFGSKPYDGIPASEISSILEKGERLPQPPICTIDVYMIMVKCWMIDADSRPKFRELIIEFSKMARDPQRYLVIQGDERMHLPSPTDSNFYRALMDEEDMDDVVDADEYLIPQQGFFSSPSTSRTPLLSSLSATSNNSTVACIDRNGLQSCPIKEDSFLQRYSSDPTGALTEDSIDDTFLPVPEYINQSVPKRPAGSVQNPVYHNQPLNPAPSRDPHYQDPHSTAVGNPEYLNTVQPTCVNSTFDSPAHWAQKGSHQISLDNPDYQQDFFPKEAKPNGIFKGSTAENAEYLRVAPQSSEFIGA", "set-up": "method as in PMID 31297023", "conditions": "read-out: kinase inhibition of EGFR IC50; cited from earlier work"}, "various cell lines": {"tested_on": "various cell lines", "set-up": "method as in doi:10.1007/s00044-013-0597-1", "conditions": "read-out: cytotoxic effect on various cell lines IC50; cited from earlier work"}, "[2]": {"tested_on": "breast cancer cell line MCF-7", "set-up": "method as in doi:10.1016/j.rechem.2023.101118", "conditions": "cited from earlier work"}, "[3]": {"tested_on": "human colorectal carcinoma (HCT-116)", "experiment": "MTT cytotoxicity assay, HCT-116", "conditions": "for IC50: Homo sapiens, HCT-116, read-out: IC50 HCT-116; for SI (selectivity index) HCT-116: WI-38 vs HCT-116"}, "[4]": {"tested_on": "WI-38 normal fibroblast cell line", "experiment": "MTT cytotoxicity against normal human cells", "assay_type": "cell-based", "conditions": "normal fibroblast WI-38; for IC50: Homo sapiens, read-out: IC50 WI-38", "protocol": "The evaluation was conducted using a 3-(4,5-dimethylthiazol-2-yl)-2,5-diphenyltetrazolium bromide (MTT) assay, as described by the authors of [50, 51]. The cell lines were obtained from ATCC. For comparative purposes, standard drugs, such as doxorubicin and erlotinib, were employed."}, "hepatoblastoma (HePG-2)": {"tested_on": "hepatoblastoma (HePG-2)", "experiment": "MTT cytotoxicity assay, HePG-2", "conditions": "for IC50: Homo sapiens, HepG2, read-out: IC50 HePG-2; for SI (selectivity index) HePG-2: WI-38 vs HePG-2"}, "[5]": {"tested_on": "HCT-116, HePG-2, and MCF-7", "experiment": "MTT cytotoxicity, summary over the examined cancer cell lines", "conditions": "Homo sapiens"}, "EGFR [6]": {"molecular_target": "T1, EGFR", "experiment": "In vitro luminescent EGFR tyrosine kinase assay (Kinase-Glo Max)", "assay_type": "biochemical", "conditions": "read-out: Kinase Inhibition IC50 EGFR"}, "[7]": {"tested_on": "breast adenocarcinoma (MCF-7)", "experiment": "MTT cytotoxicity assay, MCF-7", "conditions": "for IC50: Homo sapiens, MCF7, read-out: IC50 MCF-7; for SI (selectivity index) MCF-7: WI-38 vs MCF-7"}, "HER2": {"molecular_target": "T2, HER2 (Homo sapiens, UniProt P04626)", "T2 construct": "purchased BPS Bioscience 40721", "T2 sequence (P04626 23-1255)": "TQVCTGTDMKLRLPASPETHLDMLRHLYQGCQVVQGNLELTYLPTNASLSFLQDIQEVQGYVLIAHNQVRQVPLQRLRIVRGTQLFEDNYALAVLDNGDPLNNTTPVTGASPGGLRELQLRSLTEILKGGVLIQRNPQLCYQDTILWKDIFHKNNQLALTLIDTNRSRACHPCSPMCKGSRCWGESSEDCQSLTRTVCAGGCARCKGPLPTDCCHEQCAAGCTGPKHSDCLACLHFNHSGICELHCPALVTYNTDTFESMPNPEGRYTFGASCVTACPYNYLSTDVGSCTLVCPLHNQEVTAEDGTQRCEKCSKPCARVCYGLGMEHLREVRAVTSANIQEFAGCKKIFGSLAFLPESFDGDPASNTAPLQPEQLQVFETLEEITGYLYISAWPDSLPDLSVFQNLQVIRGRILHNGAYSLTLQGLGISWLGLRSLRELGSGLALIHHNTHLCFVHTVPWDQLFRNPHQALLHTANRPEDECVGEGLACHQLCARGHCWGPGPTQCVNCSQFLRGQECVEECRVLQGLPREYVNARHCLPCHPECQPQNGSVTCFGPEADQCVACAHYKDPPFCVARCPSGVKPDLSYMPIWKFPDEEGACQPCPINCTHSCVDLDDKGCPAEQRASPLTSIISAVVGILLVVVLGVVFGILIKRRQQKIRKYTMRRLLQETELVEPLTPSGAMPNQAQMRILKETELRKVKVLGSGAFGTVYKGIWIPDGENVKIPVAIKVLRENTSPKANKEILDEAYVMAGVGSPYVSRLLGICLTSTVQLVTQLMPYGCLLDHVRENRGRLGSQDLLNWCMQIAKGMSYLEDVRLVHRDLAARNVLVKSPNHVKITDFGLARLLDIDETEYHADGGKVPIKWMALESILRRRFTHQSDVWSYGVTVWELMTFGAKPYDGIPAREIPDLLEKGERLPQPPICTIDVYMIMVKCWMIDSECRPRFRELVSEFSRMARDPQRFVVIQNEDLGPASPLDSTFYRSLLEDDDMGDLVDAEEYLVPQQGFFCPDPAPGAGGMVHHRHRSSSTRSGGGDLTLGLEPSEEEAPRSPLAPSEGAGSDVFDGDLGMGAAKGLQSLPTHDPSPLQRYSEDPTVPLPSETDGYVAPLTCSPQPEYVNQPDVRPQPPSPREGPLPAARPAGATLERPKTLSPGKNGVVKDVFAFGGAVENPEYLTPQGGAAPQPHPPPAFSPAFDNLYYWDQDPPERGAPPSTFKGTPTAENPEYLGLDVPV", "experiment": "In vitro luminescent HER2 tyrosine kinase assay (Kinase-Glo Max)", "assay_type": "biochemical", "conditions": "read-out: Kinase Inhibition IC50 HER2", "protocol": "[…]. Erlotinib was probed as the standard drug in the EGFR inhibition assay, while lapatinib was tested as the […]. […].\nEGFR and HER2 kinase inhibitory activities were determined based on the manufacturer’s guidelines (EGFR Kinase Assay Kit Catalog no. 40321 and HER2 Kinase Assay Kit Catalog no. 40721, BPS Bioscience, San Diego, CA)."}, "[8]": {"tested_on": "anti-apoptotic protein MCL-1 in MCF-7", "experiment": "MCL-1 expression in MCF-7 cells (ELISA)", "assay_type": "cell-based, human", "protocol": "(§1) Apoptosis is regulated by intrinsic pathways such as the B-cell lymphoma-2 (BCL-2) family. […] MCL-1, one of the BCL-2 family members, is likely to have a significant role in cell death. The expression of MCL-1 and BCL-2 in MCF-7 cells treated with different concentrations was studied.\n(§2) Apoptosis of the MCF-7 cancer cell line was measured using the Human MCL1eia kit (ELISA Kit) for the MCL-1 enzyme assay and the Invitrogen Zymed® Bcl-2 ELISA Kit for the BCL-2 enzyme assay. The ROBONIK P2000 ELISA READER was used for analysis."}, "[9]": {"tested_on": "anti-apoptotic protein BCL-2 in MCF-7", "experiment": "BCL-2 expression in MCF-7 cells (ELISA)", "assay_type": "cell-based, human", "protocol": "as §1, §2"}, "MCF-7 cell line": {"tested_on": "MCF-7 cell line", "experiment": "Cell cycle analysis (propidium iodide, flow cytometry)", "assay_type": "cell-based, human", "text": "Cell cycle analysis is used to quantify DNA content distribution via flow cytometry at various cell cycle stages (pre-G1, G1, S, and G2/M). Compound 24 was selected to analyze its effect on cell cycle progression in the MCF-7 cell line at different concentrations.\nCancer cell line MCF-7 was stained with ab139418_Propidium Iodide (DNA stain) and analyzed using a FACSCalibur flow cytometer."}}, "note": "“And” between values parts separate entries of the source, which are not always exact repeats. Equal entries are not always repeated. Where two headings read alike, the source gives them in different places."}
{"smiles": "O=C(CN1C(=O)NC(c2ccccc2)(c2ccccc2)C1=O)N/N=C/c1c[nH]c2ccccc12", "note": "[Compound 1]", "values": [{"measurement": "IC50", "setting": "EGFR [1]", "result": 0.1, "unit": "µM"}]}
{"smiles": "O=C(CN1C(=O)NC(c2ccccc2)(c2ccccc2)C1=O)c1ccc(N2CCCCC2)cc1", "note": "[Compound 2]", "values": [{"measurement": "IC50", "setting": "various cell lines", "result": 10, "unit": "µM"}]}
{"smiles": "O=C(CN1C(=O)NC(c2ccccc2)(c2ccccc2)C1=O)Nc1ccc(S(=O)(=O)Nc2ccccn2)cc1", "note": "[Compound 3]", "values": [{"measurement": "inhibition of the breast cancer cell line MCF-7", "setting": "[2]", "result": "around 74%"}]}
{"smiles": "CC(=NNC(=O)CN1C(=O)NC(c2ccccc2)(c2ccccc2)C1=O)c1cccnc1", "note": "[Compound 21, 2-(2,5-Dioxo-4,4-diphenylimidazolidin-1-yl)-N′-(1-(pyridin-3-yl)ethylidene)acetohydrazide]", "values": [{"measurement": "IC50", "setting": "[3]", "result": "19.2 ± 1.5", "unit": "µM"}, {"measurement": "SI (selectivity index) HCT-116", "setting": "[3]", "result": "3.1 and 3.15"}, {"measurement": "IC50", "setting": "[4]", "result": 60.8, "unit": "µM"}, {"measurement": "IC50 WI-38", "setting": "[4]", "result": "low cytotoxicity"}, {"measurement": "IC50", "setting": "hepatoblastoma (HePG-2)", "result": "11.5 ± 1", "unit": "µM"}, {"measurement": "SI (selectivity index) HePG-2", "setting": "hepatoblastoma (HePG-2)", "result": "5.2 and 5.28"}, {"measurement": "IC50", "setting": "[5]; read-out: average IC50 versus the examined cell lines", "result": 13.1, "unit": "µM"}, {"measurement": "IC50", "setting": "EGFR [6]", "result": "1.61 ± 0.07", "unit": "µM"}, {"measurement": "IC50", "setting": "[7]", "result": "8.61 ± 0.6", "unit": "µM"}, {"measurement": "SI (selectivity index) MCF-7", "setting": "[7]", "result": 7.06}, {"measurement": "IC50", "setting": "HER2", "result": "1.17 ± 0.04", "unit": "µM"}]}
{"smiles": "CC(=NNC(=O)CN1C(=O)NC(c2ccccc2)(c2ccccc2)C1=O)c1ccc2ccccc2c1", "note": "[Compound 24, 2-(2,5-Dioxo-4,4-diphenylimidazolidin-1-yl)-N′-(1-(naphthalen-2-yl)ethylidene)acetohydrazide]", "values": [{"measurement": "IC50", "setting": "[3]", "result": "12.8 ± 0.9", "unit": "µM"}, {"measurement": "SI (selectivity index) HCT-116", "setting": "[3]", "result": "3.0 and 3.08"}, {"measurement": "IC50", "setting": "[4]", "result": 39.5, "unit": "µM"}, {"measurement": "IC50 WI-38", "setting": "[4]", "result": "low cytotoxicity"}, {"measurement": "MCL-1 expression level", "setting": "[8]; 2 µM", "result": 715.62, "unit": "pg/mL"}, {"measurement": "MCL-1 expression level", "setting": "[8]; 10 μM", "result": "261.20 pg/mL and 261.20 ± 8.97 pg/mL"}, {"measurement": "IC50", "setting": "hepatoblastoma (HePG-2)", "result": "9.07 ± 0.8", "unit": "µM"}, {"measurement": "SI (selectivity index) HePG-2", "setting": "hepatoblastoma (HePG-2)", "result": "4.3 and 4.35"}, {"measurement": "IC50", "setting": "[5]; read-out: IC50 range against the selected cell lines", "result": "4.92 to 20.1", "unit": "µM"}, {"measurement": "IC50", "setting": "EGFR [6]", "result": "0.07 ± 0.004", "unit": "µM"}, {"measurement": "IC50", "setting": "[7]", "result": "4.92 ± 0.3", "unit": "µM"}, {"measurement": "SI (selectivity index) MCF-7", "setting": "[7]", "result": "8.0 and 8.03"}, {"measurement": "BCL-2 expression level", "setting": "[9]; 2 µM", "result": 15.55, "unit": "ng/mL"}, {"measurement": "BCL-2 expression level", "setting": "[9]; 10 μM", "result": "8.60 ng/mL and 8.598 ± 0.29 ng/mL"}, {"measurement": "Comment (cell cycle arrest)", "setting": "MCF-7 cell line", "result": "cell cycle arrest appeared at the G2/M phase"}, {"measurement": "%G0–G1", "setting": "MCF-7 cell line; 2 µM", "result": 52.12, "unit": "%"}, {"measurement": "%G2/M", "setting": "MCF-7 cell line; 2 µM", "result": 25.43, "unit": "%"}, {"measurement": "%S", "setting": "MCF-7 cell line; 2 µM", "result": 22.45, "unit": "%"}, {"measurement": "%G0–G1", "setting": "MCF-7 cell line; 10 μM", "result": 50.61, "unit": "%"}, {"measurement": "%G2/M", "setting": "MCF-7 cell line; 10 μM", "result": 33.46, "unit": "%"}, {"measurement": "%S", "setting": "MCF-7 cell line; 10 μM", "result": 15.93, "unit": "%"}, {"measurement": "IC50", "setting": "HER2", "result": "0.04 ± 0.001", "unit": "µM"}]}
